# According to patent publication US10160729B2, “Hsp70 modulators and methods for making and using the same” (Memorial Sloan Kettering Cancer Center, priority 2014, dated 2018):
# Legend:
# [1] = system: diffuse large B-cell lymphoma (DLBCL) cells; test: Growth inhibition (CellTiter-Glo) in DLBCL cells, including cells with induced resistance to PU-H71; format: cell-based, human; conditions: for Spectrum of sensitive DLBCLs: FIG. 1C, PU-H71-sensitive versus compound 32-sensitive DLBCL lines
# Text: (§1) Cell lines: MDA-MB-468 cells were obtained from the American Type Culture Collection. DLBCL cells were described in Cerchietti L C, et al. BCL6 repression of EP300 in human diffuse large B cell lymphoma cells provides a basis for rational combinatorial therapy. J Clin Invest. Dec. 1, 2010; 120(12): 4569-4582; and Cerchietti L C, et al. A purine scaffold Hsp90 inhibitor destabilizes BCL-6 and has specific antitumor activity in BCL-6-dependent B cell lymphomas. Nat Med. 2009 December; 15(12):1369-76. MDA-MB-468 cells were grown in DME/F12 with 10% FBS and 1% penicillin and streptomycin. OCI-LY1R cells were developed by continuous incubation of OCI-LY1 cells with suboptimal concentrations of PU-H71 (depicted below) with subsequent selection of resistant clones. OCI-LY1, OCI-LY1R and OCI-LY7 cells were cultured in IMDM supplemented with 20% FBS, 1% glutamax and 1% penicillin and streptomycin. OCI-LY3, FARAGE, HBL1, Karpas422, MD901, U2932, SU-DHL4, SU-DHL6, RCK8 and TMD8 cells were grown in RPMI with 10% FBS, 1% glutamax and 1% penicillin and streptomycin.
# Growth inhibition: 5,000 cells per well were plated in black 96-well microtiter plates and treated next day with indicated compounds at 1/2 serial dilutions. The plate was incubated for 72h after which growth was measured using the CellTiter-Glo Luminescent Cell Viability Assay (Promega) according to manufacture's instructions. The percentage cell growth inhibition was calculated by comparing luminescence readings obtained from treated versus control cells, accounting for initial cell population. The luminescence signal in each well was measured using the Analyst GT microplate reader (Molecular Devices).
# [2] = system: MDA-MB-468 triple negative breast cancer cells; test: Western blot of anti-apoptotic protein complexes; format: cell-based; conditions: FIG. 1A, MDA-MB-468 cells, 24 h
# Text: as §1
# Western blot: Cells were plated and treated next day with indicated drug concentrations for 24h. […] The chemiluminescent signal was detected using the Enhanced Chemiluminescence Detection System (Amersham Biosciences) according to the manufacturer's instructions.
# MOLM-13 cells = test: Caspase cleavage assay (Caspase3, 7 activation); format: cell-based; conditions: Homo sapiens, 16 h treatment, caspase substrate Z-DEVD-R110, read-out: c* Concentration at which 50% of the maximum signal was achieved (caspase activation)
# Outline: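 Cells (30,000/well, RPMI) treated 16 h with compound or DMSO in triplicate, then given buffer with 10 mM HEPES pH 7.5, 2 mM EDTA, 0.1% CHAPS and 25 μM Z-DEVD-R110. Fluorescence read once signal stabilized; results given as percentage increase in apoptotic cells versus DMSO-treated control.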
SMILES,EC50 (MOLM-13 cells) [nM],also measured
"CC(C)NCCCn1c(Sc2cc3c(cc2I)OCO3)nc2c(N)ncnc21 [PU-H71, reference compound]",–,Spectrum of sensitive DLBCLs [1]: does not overlap
"CN1CCN(c2ncc(Sc3ccc(N)nc3)c(OCc3ccccc3)n2)CC1 [compound 32, 5-((4-(Benzyloxy)-2-(4-methylpiperazin-1-yl)pyrimidin-5-yl)thio)pyridin-2-amine]",200 to 400,"Effect on Hsp70-regulated anti-apoptotic protein complexes [2]: effects reverted; Activity in DLBCL cells with induced resistance to PU-H71 ([1]; FIG. 1B, DLBCL cells with induced resistance to Hsp90 inhibitor PU-H71): retains activity; Spectrum of sensitive DLBCLs [1]: does not overlap"
"C#CCN1CCN(c2ncc(Sc3ccc(C(N)=O)cc3)c(OCc3cccc(Cl)c3)n2)CC1 [compound 348, 4-((4-((3-Chlorobenzyl)oxy)-2-(4-(prop-2-yn-1-yl)piperazin-1-yl)pyrimidin-5-yl)thio)benzamide]",400 to 1000,–
"C#CCN1CCN(c2ncc(Sc3ccc(C(N)=O)c(C(F)(F)F)c3)c(OCc3cccc(Cl)c3)n2)CC1 [compound 351, 4-((4-((3-Chlorobenzyl)oxy)-2-(4-(prop-2-yn-1-yl)piperazin-1-yl)pyrimidin-5-yl)thio)-2-(trifluoromethyl)benzamide]",1000 to 1200,–
"C#CCN1CCN(c2ncc(Sc3ccc(C(N)=O)cc3)c(OCc3ccc(F)c(Cl)c3)n2)CC1 [compound 354, 4-((4-((3-Chloro-4-fluorobenzyl)oxy)-2-(4-(prop-2-yn-1-yl)piperazin-1-yl)pyrimidin-5-yl)thio)benzamide]",< 200,–
"C#CCN1CCN(c2ncc(Sc3ccc(C(N)=O)c(C(F)(F)F)c3)c(OCc3cccc(I)c3)n2)CC1 [compound 357, 4-((4-((3-Iodobenzyl)oxy)-2-(4-(prop-2-yn-1-yl)piperazin-1-yl)pyrimidin-5-yl)thio)-2-(trifluoromethyl)benzamide]",200 to 400,–
"CN(C)[C@@H]1CCN(c2ncc(Sc3ccc(C(N)=O)cc3)c(OCc3cccc(F)c3)n2)C1 [compound 363, (R)-4-((2-(3-(Dimethylamino)pyrrolidin-1-yl)-4-((3-fluorobenzyl)oxy)pyrimidin-5-yl)thio)benzamide]",200 to 400,–
"CN(C)[C@@H]1CCN(c2ncc(Sc3ccc(C(N)=O)cc3)c(OCc3cccc(Cl)c3)n2)C1 [compound 365, (R)-4-((4-((3-Chlorobenzyl)oxy)-2-(3-(dimethylamino)pyrrolidin-1-yl)pyrimidin-5-yl)thio)benzamide]",200 to 400,–
"CN(C)[C@@H]1CCN(c2ncc(Sc3ccc(C(N)=O)cc3)c(OCc3cccc(Br)c3)n2)C1 [compound 367, (R)-4-((4-((3-Bromobenzyl)oxy)-2-(3-(dimethylamino)pyrrolidin-1-yl)pyrimidin-5-yl)thio)benzamide]",200 to 400,–
"CN(C)[C@@H]1CCN(c2ncc(Sc3ccc(C(N)=O)cc3)c(OCc3cccc(I)c3)n2)C1 [compound 369, (R)-4-((2-(3-(Dimethylamino)pyrrolidin-1-yl)-4-((3-iodobenzyl)oxy)pyrimidin-5-yl)thio)benzamide]",200 to 400,–
"COc1cccc(COc2nc(N3CC[C@@H](N(C)C)C3)ncc2Sc2ccc(N)nc2)c1 [compound 375, (R)-5-((2-(3-(Dimethylamino)pyrrolidin-1-yl)-4-((3-methoxybenzyl)oxy)pyrimidin-5-yl)thio)pyridin-2-amine]",< 200,–
"CN(C)[C@@H]1CCN(c2ncc(Sc3ccc(N)nc3)c(OCc3cccc(Cl)c3)n2)C1 [compound 376, (R)-5-((4-((3-Chlorobenzyl)oxy)-2-(3-(dimethylamino)pyrrolidin-1-yl)pyrimidin-5-yl)thio)pyridin-2-amine]",< 200,–
"NC(=O)c1ccc(Sc2cnc(N3CCN(CC#CCO)CC3)nc2OCc2cccc(Cl)c2)cc1 [compound 379, 4-((4-((3-Chlorobenzyl)oxy)-2-(4-(4-hydroxybut-2-yn-1-yl)piperazin-1-yl)pyrimidin-5-yl)thio)benzamide]",< 200,–
